Results taken from patent publication US12459899B2, “Isoquinolinone derivatives, method for preparing the same, and pharmaceutical composition for preventing or treating poly(ADP-ribose) polymerase-1-related diseases, comprising the same as active ingredient” (DIGMBIO. INC., priority 2019, dated 2025).
Structures can show the parent of a compound that is named as a salt. Where two headings read alike, the source gives them in different places.

Biological target: PARP-1 (poly[ADP-ribose] polymerase 1) enzyme (Homo sapiens (Human), UniProt P09874)
Sequence (P09874 whole entry): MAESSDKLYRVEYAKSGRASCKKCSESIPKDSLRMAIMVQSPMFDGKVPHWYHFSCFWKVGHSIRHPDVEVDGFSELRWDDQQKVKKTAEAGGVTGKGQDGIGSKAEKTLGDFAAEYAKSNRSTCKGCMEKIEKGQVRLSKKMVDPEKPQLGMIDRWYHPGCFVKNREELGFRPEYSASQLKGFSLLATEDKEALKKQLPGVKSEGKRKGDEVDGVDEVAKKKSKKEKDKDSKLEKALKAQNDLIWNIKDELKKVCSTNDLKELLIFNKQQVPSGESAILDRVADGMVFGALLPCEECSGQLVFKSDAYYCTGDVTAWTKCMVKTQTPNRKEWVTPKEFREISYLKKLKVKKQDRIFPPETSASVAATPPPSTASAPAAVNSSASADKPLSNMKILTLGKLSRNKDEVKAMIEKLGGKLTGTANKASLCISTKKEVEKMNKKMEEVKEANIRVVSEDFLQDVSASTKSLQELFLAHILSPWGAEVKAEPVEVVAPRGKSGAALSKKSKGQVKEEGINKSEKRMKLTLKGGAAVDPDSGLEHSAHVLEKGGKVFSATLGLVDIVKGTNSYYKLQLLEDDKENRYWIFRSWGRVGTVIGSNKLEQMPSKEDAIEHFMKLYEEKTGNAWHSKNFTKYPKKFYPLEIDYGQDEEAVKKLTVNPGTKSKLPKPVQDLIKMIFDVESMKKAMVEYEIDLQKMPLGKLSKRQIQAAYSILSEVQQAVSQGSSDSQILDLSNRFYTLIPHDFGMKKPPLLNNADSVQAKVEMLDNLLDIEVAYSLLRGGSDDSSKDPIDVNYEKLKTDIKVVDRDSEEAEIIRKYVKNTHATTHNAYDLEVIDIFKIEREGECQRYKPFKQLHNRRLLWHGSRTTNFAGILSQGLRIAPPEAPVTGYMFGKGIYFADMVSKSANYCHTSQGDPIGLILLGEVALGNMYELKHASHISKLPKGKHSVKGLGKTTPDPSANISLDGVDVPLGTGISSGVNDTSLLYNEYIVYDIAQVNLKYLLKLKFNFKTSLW
Assay: PARP-1 (poly[ADP-ribose] polymerase 1) enzyme inhibitory ability, Trevigen assay kit
Format: biochemical
Details: for IC50: PARP-1 enzyme activity
Procedure: In order to evaluate the PARP-1 (poly[ADP-ribose] polymerase 1) enzyme inhibitory ability of the compounds according to the present invention, an experiment was conducted as follows.
Specifically, in order to evaluate the PARP-1 (poly[ADP-ribose] polymerase 1) enzyme inhibitory ability of the compounds of Examples 1 to 276 according to the present invention, the PARP-1 (poly[ADP-ribose] polymerase 1) activity was investigated in the following manner using an assay kit purchased from Trevigen, Inc. (Catalog number: 4677-096-K). 50 μL of 1×PARP buffer (provided by Trevigen's kit) was dispensed into a 96-well plate coated with histones per each well, and then rehydrated for 30 minutes. After removing the 1×PARP buffer present in the well, PARP-1 (poly[ADP-ribose] polymerase 1) enzyme (0.5 unit/well) and 1 μM concentration or various concentrations of the compounds of Example 1 to 276 were added at room temperature and reacted for 10 minutes. Thereafter, each well was treated with 25 μL of 1×PARP cocktail (biotinylated NAD, activated DNA, provided by Trevigen's kit), and then reacted at room temperature for 1 hour. After the reaction was completed, each well was washed twice with PBS (7.5 mM Na2HPO4, 2.5 mM NaH2PO4, 145 mM NaCl) containing 0.1% triton X-100, and washed twice with PBS. Then, 50 μL of strep-HRP (streptavidin-linked peroxidase) was added and reacted at room temperature for 1 hour, and then washed twice with PBS containing 0.1% triton X-100, and washed twice with PBS. After removing all PBS, 50 μL of TACS-sapphire, a substrate, was added, and reacted at room temperature for 15 minutes while blocking the light. After the reaction was terminated by treatment with 50 μL of 5% phosphoric acid to each well, the absorbance was measured at 450 nm using a microplate reader Victor3 from PerkinElmer, Inc. to quantify the value.

[1] = 1 nM compound, read-out: PAR P-1 Inhibitory ability at 1 nM

Compound | inhibition at 0.001 µM [1] [%] | other results
Cc1cc(F)cc2c(=O)[nH]c(CCC(=O)N3CCN(C(=O)C4CC4)CC3)cc12 [Example 185, 3-(3-(4-(cyclopropanecarbonyl)piperazin-1-yl)-3-oxopropyl)-7-fluoro-5-methylisoquinolin-1(2H)-one] | < 50 | –
O=c1[nH]c(CCCN2CCN(c3ccc(C(F)(F)F)cc3)CC2)cc2cccc(F)c12 [Example 4, 8-fluoro-3-(3-(4-(4-(trifluoromethyl)phenyl)piperazin-1-yl)propyl)isoquinolin-1(2H)-one] | < 50 | –
O=C(CCc1cc2cccc(F)c2c(=O)[nH]1)N1CC=C(c2ccc(F)cn2)CC1 [Example 86] | < 50 | –
N#Cc1ccc(N2CC3CCC(C2)N3CCCc2cc3ncccc3c(=O)[nH]2)cn1 [Example 229, 5-(8-(3-(5-oxo-5,6-dihydro-1,6-naphthyridin-7-yl)propyl)-3,8-diazabicyclo[3.2.1]octan-3-yl)picolinonitrile] | < 50 | –
O=c1[nH]c(CCCN2CCN(c3ccc(C(F)(F)F)cc3)CC2)cc2ccc(F)cc12 [Example 9, 7-fluoro-3-(3-(4-(4-(trifluoromethyl)phenyl)piperazin-1-yl)propyl)isoquinolin-1(2H)-one] | < 50 | –
N#Cc1ccc(N2CC3CCC(C2)N3CCCc2cc3cccc(F)c3c(=O)[nH]2)cc1 [Example 7, 4-(8-(3-(8-fluoro-1-oxo-1,2-dihydroisoquinolin-3-yl)propyl)-3,8-diazabicyclo[3.2.1]octan-3-yl)benzonitrile] | < 50 | –
Cc1ccc(F)c2c(=O)[nH]c(CCC(=O)N3CCC(Nc4ccc(Cl)cc4)CC3)cc12 [Example 264, 3-(3-(4-((4-chlorophenyl)amino)piperidin-1-yl)-3-oxopropyl)-8-fluoro-5-methylisoquinolin-1(2H)-one] | < 50 | –
Cc1ccc(F)c2c(=O)[nH]c(CCC(=O)N3CCN(C(=O)C4CCCO4)CC3)cc12 (stereo not shown) [Example 191, 8-fluoro-5-methyl-3-(3-oxo-3-(4-(tetrahydrofuran-2-carbonyl)piperazin-1-yl)propyl)isoquinolin-1(2H)-one] | < 50 | –
O=c1[nH]c(CCCN2CC=C(c3ccc(F)cc3)CC2)cc2ccc(F)cc12 [Example 48, 7-fluoro-3-(3-(4-(4-fluorophenyl)-3,6-dihydropyridin-1(2H)-yl)propyl)isoquinolin-1(2H)-one] | < 50 | IC50: 1.32 nM
Cc1ccc(F)c2c(=O)[nH]c(CCC(=O)N3CCN(C(=O)C4CC4)CC3)cc12 [Example 183, 3-(3-(4-(cyclopropanecarbonyl)piperazin-1-yl)-3-oxopropyl)-8-fluoro-5-methylisoquinolin-1(2H)-one] | < 50 | IC50: 14.7 nM
N#Cc1cc(F)ccc1N1CCN(C(=O)CCc2cc3cccc(F)c3c(=O)[nH]2)CC1 [Example 76, 5-fluoro-2-(4-(3-(8-fluoro-1-oxo-1,2-dihydroisoquinolin-3-yl)propanoyl)piperazin-1-yl)benzonitrile] | < 50 | –
Cc1cc(F)cc2c(=O)[nH]c(CCC(=O)N3C4CCC3CN(c3ccc(C#N)cc3)C4)cc12 [Example 213, 4-(8-(3-(7-fluoro-5-methyl-1-oxo-1,2-dihydroisoquinolin-3-yl)propanoyl)-3,8-diazabicyclo[3.2.1]octan-3-yl)benzonitrile] | < 50 | –
Cc1cc(F)cc2c(=O)[nH]c(CCC(=O)N3CCN(c4ccc(C#N)nc4)CC3)cc12 [Example 151, 5-(4-(3-(7-fluoro-5-methyl-1-oxo-1,2-dihydroisoquinolin-3-yl)propanoyl)piperazin-1-yl)picolinonitrile] | < 50 | IC50: 4.05 nM
Cc1ccc(F)c2c(=O)[nH]c(CCCN3CCN(C(=O)c4ccccc4)CC3)cc12 [Example 66, 3-(3-(4-benzoylpiperazin-1-yl)propyl)-8-fluoro-5-methylisoquinolin-1(2H)-one] | < 50 | –
O=c1[nH]c(CCCN2CC=C(c3ccc(Cl)cc3)CC2)cc2ccc(F)cc12 [Example 49, 3-(3-(4-(4-chlorophenyl)-3,6-dihydropyridin-1(2H)-yl)propyl)-7-fluoroisoquinolin-1(2H)-one] | < 50 | IC50: 3.58 nM
N#Cc1ccc(N2CCN(CCCc3cc4ccc(F)cc4c(=O)[nH]3)CC2)cc1 [Example 8, 4-(4-(3-(7-fluoro-1-oxo-1,2-dihydroisoquinolin-3-yl)propyl)piperazin-1-yl)benzonitrile] | 50 to 80 | IC50: 0.72 nM

Compound | inhibition at 0.001 µM [1] [%] | other results
O=C(CCc1cc2ccc(F)cc2c(=O)[nH]1)N1CC=C(c2ccc(F)cc2)CC1 [Example 104, 7-fluoro-3-(3-(4-(4-fluorophenyl)-3,6-dihydropyridin-1(2H)-yl)-3-oxopropyl)isoquinolin-1(2H)-one] | < 50 | –
Cc1cc(F)cc2c(=O)[nH]c(CCCN3CCN(c4ccc(F)cc4)CC3)cc12 [Example 40, 7-fluoro-3-(3-(4-(4-fluorophenyl)piperazin-1-yl)propyl)-5-methylisoquinolin-1(2H)-one] | 50 to 80 | –
N#Cc1ccc(C2=CCN(CCCc3cc4ccc(F)cc4c(=O)[nH]3)CC2)cc1 [Example 47, 4-(1-(3-(7-fluoro-1-oxo-1,2-dihydroisoquinolin-3-yl)propyl)-1,2,3,6-tetrahydropyridin-4-yl)benzonitrile] | > 80 | inhibition at 0.001 µM (1 nM (Table 2), read-out: inhibited PARP-1 enzyme activity): ≥ 80%
N#Cc1ccc(N2CCN(C(=O)CCc3cc4ccc(F)cc4c(=O)[nH]3)CC2)nc1 [Example 99, 6-(4-(3-(7-fluoro-1-oxo-1,2-dihydroisoquinolin-3-yl)propanoyl)piperazin-1-yl)nicotinonitrile] | < 50 | IC50: 1.05 nM
Cc1ccc(F)c2c(=O)[nH]c(CCC(=O)N3CCN(c4cc(F)ccc4C#N)CC3)cc12 [Example 134, 4-fluoro-2-(4-(3-(8-fluoro-5-methyl-1-oxo-1,2-dihydroisoquinolin-3-yl)propanoyl)piperazin-1-yl)benzonitrile] | < 50 | –
Cc1ccc(F)c2c(=O)[nH]c(CCC(=O)N3CC(NC(=O)C4CC4)C3)cc12 [Example 275, N-(1-(3-(8-fluoro-5-methyl-1-oxo-1,2-dihydroisoquinolin-3-yl)propanoyl)azetidin-3-yl)cyclopropanecarboxamide] | < 50 | –
N#Cc1ccc(N2CCN(CCCc3cc4cccc(F)c4c(=O)[nH]3)CC2)cc1 [Example 6, 4-(4-(3-(8-fluoro-1-oxo-1,2-dihydroisoquinolin-3-yl)propyl)piperazin-1-yl)benzonitrile hydrochloride] | 50 to 80 | IC50 (hydrochloride): 0.41 nM
Cc1cc(F)cc2c(=O)[nH]c(CCCN3CC=C(c4ccc(C#N)cn4)CC3)cc12 [Example 60, 1′-(3-(7-fluoro-5-methyl-1-oxo-1,2-dihydroisoquinolin-3-yl)propyl)-1′,2′,3′,6′-tetrahydro-[2,4′-bipyridine]-5-carbonitrile] | < 50 | –
Cc1ccc(F)c2c(=O)[nH]c(CCCN3CCN(c4ccc(C#N)nc4)CC3)cc12 [Example 21, 5-(4-(3-(8-fluoro-5-methyl-1-oxo-1,2-dihydroisoquinolin-3-yl)propyl)piperazin-1-yl)picolinonitrile] | < 50 | IC50: 1.09 nM
N#Cc1ccccc1N1CCN(C(=O)CCc2cc3ccc(F)cc3c(=O)[nH]2)CC1 [Example 98, 2-(4-(3-(7-fluoro-1-oxo-1,2-dihydroisoquinolin-3-yl)propanoyl)piperazin-1-yl)benzonitrile] | < 50 | –
Cc1cc(F)cc2c(=O)[nH]c(CCC(=O)N3CCN(c4cc(F)cc(C#N)c4)CC3)cc12 [Example 166, 3-fluoro-5-(4-(3-(7-fluoro-5-methyl-1-oxo-1,2-dihydroisoquinolin-3-yl)propanoyl)piperazin-1-yl)benzonitrile] | < 50 | –
Cc1ccc(F)c2c(=O)[nH]c(CCC(=O)N3CCN(c4ccc(F)c(C#N)c4)CC3)cc12 [Example 135, 2-fluoro-5-(4-(3-(8-fluoro-5-methyl-1-oxo-1,2-dihydroisoquinolin-3-yl)propanoyl)piperazin-1-yl)benzonitrile] | < 50 | –
Cc1cc(F)cc2c(=O)[nH]c(CCC(=O)N3CCN(c4ccc(C#N)c(F)c4)CC3)cc12 [Example 153, 2-fluoro-4-(4-(3-(7-fluoro-5-methyl-1-oxo-1,2-dihydroisoquinolin-3-yl)propanoyl)piperazin-1-yl)benzonitrile] | < 50 | –
O=c1[nH]c(CCCN2C3CCC2CN(c2ccc(F)nc2)C3)cc2ncccc12 [Example 233, 7-(3-(3-(6-fluoropyridin-3-yl)-3,8-diazabicyclo[3.2.1]octan-8-yl)propyl)-1,6-naphthyridin-5(6H)-one] | 50 to 80 | –
Cc1cc(F)cc2c(=O)[nH]c(CCC(=O)N3CCC(Nc4ccc(Cl)cc4)CC3)cc12 [Example 263, 3-(3-(4-((4-chlorophenyl)amino)piperidin-1-yl)-3-oxopropyl)-7-fluoro-5-methylisoquinolin-1(2H)-one] | < 50 | –
